pIC50: −log10 of the molar value.
Key:
human KAT6A = human KAT6A (Homo sapiens (Human), UniProt Q92794); test: KAT6 enzyme activity assay (AlphaScreen method), KAT6A; type: biochemical; settings: inhibition of the enzyme human KAT6A
From the text: Test Example 1: KAT6 Enzyme Activity Assay (AlphaScreen Method)
I. Reagents and instrument • 1. KAT6A (customized by Chempartner) • 2. Ovalbumin (Sigma-Aldrich, A5378-5G) • 3. 2 M Tris-HCl solution, pH 7.8, sterile (Sangon, B548140-0500) • 4. 5 M NaCl solution (Sangon, B548121-0100) • 5. EDTA (0.5 M), pH 8.0, RNase-free (Thermofisher, AM9260G) • 6. Tween-20 (Sangon, A100777-0500) • 7. DTT, 1 M (Invitrogen, P2325) • 8. Acetyl coenzyme A (Ac-CoA, CAYMAN, Cat. No. 16160) • 9. Recombinant histone H3.1 biotinylated (human) (Active Motif 31696) • 10. 384-well plate, light gray (Perkin Elmer, Cat. No. 6005350) • 11. Anacardic acid (MCE, Cat. No. HY—N2020) • 12. AlphaScreen streptavidin donor beads, 5 mg (PerkinElmer, 6760002) • 13. AlphaScreen protein A acceptor beads, 5 mg (PerkinElmer, 6760137M) • 14. Acetylated-lysine antibody #9441 (CST 9441S) • 15. PHERA star microplate reader (BMG labtech) • II. Experimental method
a. 1× assay buffer: 100 mM Tris-HCl, pH 7.8; 15 mM NaCl; 1 mM EDTA; 0.01% tween-20; 1 mM DTT; 0.01% m/v ovalbumin.
b. KAT enzyme solution: 1.25 nM (final concentration), prepared in 1× assay buffer.
c. Mixed substrate of Ac-CoA and H3: a mixed substrate of 1000 nM (final concentration) Ac-CoA and 55 nM (final concentration) H3, prepared in 1× assay buffer.
d. Compounds: initial concentration of 100 μM, 3-fold dilution, 10 gradient concentrations. All compound concentrations were diluted 83-fold with 1× assay buffer for later use.
e. Assay reagent: 8 ng/μL (final concentration) AlphaScreen protein A acceptor beads, 8 ng/μL AlphaScreen streptavidin donor beads, 1:1500 diluted acetylated-lysine antibody, and 100 μM anacardic acid; prepared in 1× assay buffer.
(§1) 2. Experimental Procedure
a. The prepared enzyme solution was added to a 384-well plate at 3 μL/well, and 3 μL of 1× assay buffer was added to each well in columns 23 and 24 (Min).
b. 3 μL of compound solution was added to each well, and 3 μL of buffer was added to each Min well; 3 μL of DMSO solution was added to each well in columns 1 and 2 (Max) as controls. The plate was centrifuged, shaken for 2 min, and incubated at room temperature for 15 min.
c. The mixed substrate of Ac-CoA and H3 was added at 6 μL/well, and the plate was centrifuged, shaken for 2 min, and incubated at room temperature for 20 min.
d. The assay reagent was added at 6 μL/well, and the plate was centrifuged, shaken for 2 min, and incubated in the dark at room temperature for 120 min.
e. Plate reading was performed on the microplate reader, and AlphaScreen counts were recorded.
f. Plotting was performed using the Graphpad software, and the IC50 values of the compounds were calculated.

[1] = system: H3K23 acetylation in U-2 OS cells; test: U2OS cell H3K23 acetylation IF assay (immunofluorescence); type: cell-based; settings: Homo sapiens; for pIC50: 24 h incubation, read-out: H3K23 ac/IC50; for Emax: inhibition of H3K23 acetylation, 24 h, read-out: Maximum inhibition rate/Imax %
Description: Test Example 3: U2OS Cell H3K23 Acetylation IF Assay (Immunofluorescence)
I. Reagents and Instruments
• 1. U-2 OS (ATCC HTB-96) • 2. Recombinant anti-histone H3 (acetyl K23) antibody (Abcam, ab177275) • 3. Goat anti-rabbit IgG (H+L), Superclonal™ recombinant secondary antibody, Alexa Fluor 488 (Thermofisher, A27034) • 4. Hoechst 33342 (Sigma-Aldrich, B2261-25MG) • 5. Assay plate, 96-well, black with clear bottom (Corning, 3603) • 6. Bovine serum albumin (BSA) (Sangon Biotech, A500023-0100) • 7. Methanol (GENERAL-REAGENT, G75851D) • 8. Tween-20 (Sangon, A100777-0500) • 9. Triton X-100 (Solarbio, T8200) • 10. PBS (Shanghai BasalMedia Technologies Co., Ltd., B320KJ) • 11. 20×PBS buffer (Sangon Biotech, B548117-0500) • 12. McCoy's 5A medium (Gibco, 16600082) • 13. 0.25% trypsin-EDTA (1×) (Gibco, 25200-072) • 14. Pen strep (Gibco, 15140-122) • 15. DPBS (1×) (Gibco, 14190-144) • 16. FBS (Gibco, 10091148) • 17. Automatic cell counter (Countstar, IC1000) • 18. Thermostatic incubator (Thermo, 1160) • 19. ImageXpress® Micro Confocal (Molecular Device)
a. Blocking buffer: PBS (Shanghai BasalMedia)+BSA (final concentration of 1%)+Triton X-100 (final concentration of 0.5%).
b. Wash buffer: PBS (20×PBS was diluted to 1×PBS)+Tween-20 (final concentration of 0.1%).
c. Primary antibody solution: Recombinant anti-histone H3 (acetyl K23) antibody was diluted in blocking buffer at a ratio of 1:1000.
d. Secondary antibody solutions: Goat anti-rabbit IgG (H+L), Superclonal™ recombinant secondary antibody, Alexa Fluor 488 was diluted in blocking buffer at a ratio of 1:1000, and Hoechst 33342 was diluted in blocking buffer at a ratio of 1:5000.
e. Compounds: initial concentration of 100 μM, 3-fold dilution, 9 gradient concentrations. All compound concentrations were diluted 500-fold with McCoy's 5A medium for later use.
as §1
2.1. Cell Treatment (Day One)
a. The state of U-2 OS cells was observed under a microscope to make sure that the cell confluence was about 90%.
b. The cell supernatant was discarded. The cells were rinsed with DPBS once, and the DPBS was removed. The cells were digested with a proper amount of trypsin and left to stand at room temperature or 37° C. for 5 min.
c. The digestion was stopped with an equal volume of medium containing 10% FBS, and the cell suspension was collected and centrifuged at 300 g for 3 min. The cells were suspended in a proper amount of fresh medium.
d. The resulting cell suspension was collected and cell counting was performed.
e. The cell suspension was diluted and plated at 9000 cells/50 μL/well.
f. The wells on the periphery were blocked with 100 μL of PBS.
g. The cell culture plates were incubated overnight in a 37° C., 5% carbon dioxide incubator.
2.2. Compound Addition (Day Two)
a. 50 μL of diluted compound was added to the cell supernatant (50 μL/well) in each cell plate.
b. After the addition, the cell plates were incubated in a 37° C., 5% carbon dioxide incubator for 24 h.
2.3. Immunofluorescence Staining and Measurement (Day Three to Day Four)
a. After the 24-hour incubation, the cell plates were removed from the incubator. The medium was discarded, and plates were fixed with pre-cooled methanol at room temperature for 10 min.
b. The fixation buffer was discarded, and the plates were quickly washed with wash buffer 3 times and then slowly washed 3 times (5 min/wash).
c. The wash buffer was discarded, and blocking buffer was added. The plates were incubated at room temperature for 60 min.
d. The blocking buffer was discarded, and the prepared primary antibody solution was added. The plates were incubated overnight at 4° C.
e. The primary antibody solution was discarded, and the prepared secondary antibody solution was added. The plates were incubated at room temperature for 60 min.
f. The secondary antibody solution was discarded, and the plates were quickly washed with wash buffer 3 times and then slowly washed 5 times (5 min/wash).
g. The plates were tested on ImageXpress® Micro Confocal.
h. […]

Chain of human KAT6A (Q92794 whole entry): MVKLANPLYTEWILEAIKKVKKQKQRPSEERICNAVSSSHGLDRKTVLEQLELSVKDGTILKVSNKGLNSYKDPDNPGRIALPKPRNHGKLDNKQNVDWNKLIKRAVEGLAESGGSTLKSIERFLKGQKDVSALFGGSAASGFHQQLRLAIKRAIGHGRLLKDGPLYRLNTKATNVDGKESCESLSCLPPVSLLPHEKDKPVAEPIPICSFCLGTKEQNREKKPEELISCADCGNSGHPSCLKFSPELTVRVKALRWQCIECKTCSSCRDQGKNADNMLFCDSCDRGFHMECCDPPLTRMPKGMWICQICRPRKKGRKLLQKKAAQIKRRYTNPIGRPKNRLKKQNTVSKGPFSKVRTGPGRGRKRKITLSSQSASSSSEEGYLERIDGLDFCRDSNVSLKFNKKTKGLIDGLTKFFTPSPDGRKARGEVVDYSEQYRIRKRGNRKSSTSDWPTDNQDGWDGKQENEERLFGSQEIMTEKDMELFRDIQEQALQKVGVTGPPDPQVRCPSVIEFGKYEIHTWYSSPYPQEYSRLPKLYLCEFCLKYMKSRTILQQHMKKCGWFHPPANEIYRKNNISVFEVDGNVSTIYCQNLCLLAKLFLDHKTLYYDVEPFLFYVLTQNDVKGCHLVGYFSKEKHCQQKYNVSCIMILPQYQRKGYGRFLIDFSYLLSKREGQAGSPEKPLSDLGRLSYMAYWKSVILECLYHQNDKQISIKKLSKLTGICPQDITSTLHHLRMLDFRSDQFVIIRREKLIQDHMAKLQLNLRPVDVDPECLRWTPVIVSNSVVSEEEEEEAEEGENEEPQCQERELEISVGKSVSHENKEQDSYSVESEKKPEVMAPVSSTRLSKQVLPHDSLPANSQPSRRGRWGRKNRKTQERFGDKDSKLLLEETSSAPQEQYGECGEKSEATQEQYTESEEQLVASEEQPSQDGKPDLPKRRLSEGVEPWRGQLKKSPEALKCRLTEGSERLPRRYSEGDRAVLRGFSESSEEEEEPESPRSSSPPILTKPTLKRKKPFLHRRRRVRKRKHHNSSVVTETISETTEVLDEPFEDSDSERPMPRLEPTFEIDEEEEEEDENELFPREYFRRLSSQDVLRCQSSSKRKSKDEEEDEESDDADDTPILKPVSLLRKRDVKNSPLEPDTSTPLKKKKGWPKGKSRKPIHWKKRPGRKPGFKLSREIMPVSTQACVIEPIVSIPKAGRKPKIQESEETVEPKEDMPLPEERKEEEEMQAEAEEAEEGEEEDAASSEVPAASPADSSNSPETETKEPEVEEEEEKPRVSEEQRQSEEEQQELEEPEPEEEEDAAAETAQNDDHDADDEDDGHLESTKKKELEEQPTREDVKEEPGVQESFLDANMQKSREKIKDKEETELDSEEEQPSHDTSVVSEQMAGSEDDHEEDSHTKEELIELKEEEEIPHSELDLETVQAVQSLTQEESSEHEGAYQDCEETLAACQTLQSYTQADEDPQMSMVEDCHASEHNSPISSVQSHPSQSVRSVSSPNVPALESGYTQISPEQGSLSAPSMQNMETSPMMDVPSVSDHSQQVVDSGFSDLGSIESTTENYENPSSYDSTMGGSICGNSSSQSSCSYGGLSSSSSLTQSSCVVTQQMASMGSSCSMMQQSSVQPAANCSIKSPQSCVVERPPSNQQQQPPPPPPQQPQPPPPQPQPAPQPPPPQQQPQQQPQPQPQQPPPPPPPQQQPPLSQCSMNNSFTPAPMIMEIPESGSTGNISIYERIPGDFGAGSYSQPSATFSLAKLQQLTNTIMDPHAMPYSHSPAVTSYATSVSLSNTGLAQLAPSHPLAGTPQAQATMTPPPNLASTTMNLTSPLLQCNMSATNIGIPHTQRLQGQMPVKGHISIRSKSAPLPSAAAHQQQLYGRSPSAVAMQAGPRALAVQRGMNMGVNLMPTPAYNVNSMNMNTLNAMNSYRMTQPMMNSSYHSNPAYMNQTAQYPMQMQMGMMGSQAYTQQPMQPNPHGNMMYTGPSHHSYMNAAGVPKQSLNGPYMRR

Structure (SMILES)	pIC50 (human KAT6A)	pIC50 [1]	Emax [1]
COc1cccc(C)c1S(=O)(=O)Nc1noc2cc(Cn3cccn3)c3c(c12)OCC3 [Compound 17, N-(4-((1H-pyrazol-1-yl)methyl)-2,3-dihydrobenzofuro[7,6-d]isoxazol-8-yl)-2-methoxy-6-methylbenzenesulfonamide]	7.98		
COc1cc(C)ccc1S(=O)(=O)Nc1noc2cc(Cn3cccn3)c3c(c12)OCC3 [Compound 22, N-(4-((1H-pyrazol-1-yl)methyl)-2,3-dihydrobenzofuro[7,6-d]isoxazol-8-yl)-2-methoxy-4-methylbenzenesulfonamide]	8.33	8.54	105%
COc1cccc(OC)c1S(=O)(=O)Nc1noc2cc([C@H]3CCCO3)c3c(c12)OCC3 [Compound 26-1, (R)-2,6-dimethoxy-N-(4-(tetrahydrofuran-2-yl)-2,3-dihydrobenzofuro[7,6-d]isoxazol-8-yl)benzenesulfonamide]	8.28		
COc1ccccc1S(=O)(=O)Nc1noc2cc(Cn3cccn3)c3c(c12)OCCO3 [Compound 4, N-(5-((1H-pyrazol-1-yl)methyl)-2,3-dihydro-[1,4]dioxino[2′,3′:5,6]benzo[1,2-d]isoxazol-9-yl)-2-methoxybenzenesulfonamide]	8.38	8.82	106%
COc1cccc(OC)c1S(=O)(=O)Nc1noc2cc(C3CCCO3)c3c(c12)OCC3 (stereo not drawn) [Compound 26, 2,6-dimethoxy-N-(4-(tetrahydrofuran-2-yl)-2,3-dihydrobenzofuro[7,6-d]isoxazol-8-yl)benzenesulfonamide]	7.91		
COc1cc2c(cc1S(=O)(=O)Nc1noc3cc(Cn4cccn4)c4c(c13)OCC4)OCC2 [Compound 19, N-(4-((1H-pyrazol-1-yl)methyl)-2,3-dihydrobenzofuro[7,6-d]isoxazol-8-yl)-5-methoxy-2,3-dihydrobenzofuran-6-sulfonamide]	8.57		
COc1ccc(C)cc1S(=O)(=O)Nc1noc2cc(Cn3cccn3)c3c(c12)OCC3 [Compound 18, N-(4-((1H-pyrazol-1-yl)methyl)-2,3-dihydrobenzofuro[7,6-d]isoxazol-8-yl)-2-methoxy-5-methylbenzenesulfonamide]	7.90		
O=S(=O)(Nc1noc2cc(Cn3cccn3)c3c(c12)OCCC3)c1cccc2c1OCC2 [Compound 12, N-(5-((1H-pyrazol-1-yl)methyl)-3,4-dihydro-2H-chromeno[8,7-d]isoxazol-9-yl)-2,3-dihydrobenzofuran-7-sulfonamide]	7.90		

These reach a higher pIC50 (human KAT6A). Values come first.

pIC50 (human KAT6A)	pIC50 [1]	Structure (SMILES)	Emax [1]
9.52		CCc1ccc(S(=O)(=O)Nc2noc3cc(Cn4cccn4)c4c(c23)OCCC4)c(OC)c1 [Compound 13, N-(5-((1H-pyrazol-1-yl)methyl)-3,4-dihydro-2H-chromeno[8,7-d]isoxazol-9-yl)-4-ethyl-2-methoxybenzenesulfonamide]	
8.92		COc1cc2c(cc1S(=O)(=O)Nc1noc3cc(Cn4cccn4)c4c(c13)OCC4)CCC2 [Compound 15, N-(4-((1H-pyrazol-1-yl)methyl)-2,3-dihydrobenzofuro[7,6-d]isoxazol-8-yl)-6-methoxy-2,3-dihydro-1H-indene-5-sulfonamide]	
8.72		CCOc1cc(C)ccc1S(=O)(=O)Nc1noc2cc(Cn3cccn3)c3c(c12)OCC3 [Compound 16, N-(4-((1H-pyrazol-1-yl)methyl)-2,3-dihydrobenzofuro[7,6-d]isoxazol-8-yl)-2-ethoxy-4-methylbenzenesulfonamide]	
8.80	8.68	COc1cc(N(C)C)ccc1S(=O)(=O)Nc1noc2cc(Cn3cccn3)c3c(c12)OCCC3 [Compound 11, N-(5-((1H-pyrazol-1-yl)methyl)-3,4-dihydro-2H-chromeno[8,7-d]isoxazol-9-yl)-4-(dimethylamino)-2-methoxybenzenesulfonamide]	103%

— patent US20250145637A1, “SULFONAMIDE DERIVATIVE, PREPARATION METHOD THEREFOR AND MEDICAL USE THEREOF” (Jiangsu Hengrui Pharmaceuticals Co. Ltd., priority 2021, published 2025)
